Laboratory results from the kinase profiling compilation of Christmann-Franck et al. (2016).
“And” between values parts separate entries of the source, which are not always exact repeats. Equal entries are not always repeated. One block for each molecule: values may come before it.

How the values were obtained:
Assay in all cases: radiometric filter-binding kinase assay, Kinase HotSpot
Conditions in all cases: compound 0.5 µM; ATP 10 µM
[1] = molecular target: AKT2 (human) (UniProt P31751)
[2] = molecular target: ALK (human) (UniProt Q9UM73)
[3] = molecular target: BMX (human) (UniProt P51813)
Chain of BMX (human) (P51813 whole entry, looked up): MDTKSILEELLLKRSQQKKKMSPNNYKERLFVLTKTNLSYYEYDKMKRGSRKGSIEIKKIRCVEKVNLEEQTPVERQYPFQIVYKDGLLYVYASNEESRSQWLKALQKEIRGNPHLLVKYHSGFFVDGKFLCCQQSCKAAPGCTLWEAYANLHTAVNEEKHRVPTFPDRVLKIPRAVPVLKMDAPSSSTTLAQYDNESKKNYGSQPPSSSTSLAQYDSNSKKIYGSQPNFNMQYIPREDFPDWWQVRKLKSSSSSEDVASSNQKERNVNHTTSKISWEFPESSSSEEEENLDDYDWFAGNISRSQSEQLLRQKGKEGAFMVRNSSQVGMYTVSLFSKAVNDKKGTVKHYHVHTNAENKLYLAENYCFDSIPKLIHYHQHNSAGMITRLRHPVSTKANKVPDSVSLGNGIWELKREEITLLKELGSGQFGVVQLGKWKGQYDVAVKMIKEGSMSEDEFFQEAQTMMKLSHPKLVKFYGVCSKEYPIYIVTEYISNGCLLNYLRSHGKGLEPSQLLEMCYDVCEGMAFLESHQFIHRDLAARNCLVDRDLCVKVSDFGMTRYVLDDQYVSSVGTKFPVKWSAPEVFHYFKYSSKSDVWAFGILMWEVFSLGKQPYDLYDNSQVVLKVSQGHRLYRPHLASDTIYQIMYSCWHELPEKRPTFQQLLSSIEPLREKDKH

[4] = molecular target: CAMK2B (human) (UniProt Q13554)
Chain of CAMK2B (human) (Q13554 whole entry, looked up): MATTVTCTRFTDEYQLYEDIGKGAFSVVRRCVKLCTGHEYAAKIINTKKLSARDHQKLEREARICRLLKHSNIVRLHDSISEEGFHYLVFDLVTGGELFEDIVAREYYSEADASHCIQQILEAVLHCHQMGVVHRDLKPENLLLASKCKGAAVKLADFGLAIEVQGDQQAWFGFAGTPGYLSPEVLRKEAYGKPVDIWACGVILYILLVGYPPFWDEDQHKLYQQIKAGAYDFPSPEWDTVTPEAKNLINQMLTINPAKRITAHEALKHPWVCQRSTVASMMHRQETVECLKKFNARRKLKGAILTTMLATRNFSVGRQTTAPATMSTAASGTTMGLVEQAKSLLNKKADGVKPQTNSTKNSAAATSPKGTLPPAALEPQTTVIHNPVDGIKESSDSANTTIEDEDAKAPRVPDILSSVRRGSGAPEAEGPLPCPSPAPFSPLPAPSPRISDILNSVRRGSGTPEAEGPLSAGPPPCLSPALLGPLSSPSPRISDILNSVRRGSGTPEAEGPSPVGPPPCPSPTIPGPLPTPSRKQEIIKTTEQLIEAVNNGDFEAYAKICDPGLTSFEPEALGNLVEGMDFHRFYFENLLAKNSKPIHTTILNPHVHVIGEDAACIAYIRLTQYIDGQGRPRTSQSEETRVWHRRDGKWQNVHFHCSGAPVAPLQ

[5] = molecular target: CDC42BPA (human) (UniProt Q5VT25)
[6] = molecular target: CDK3 CCNE1 (human) (UniProt Q00526+P24864)
[7] = molecular target: CLK2 (human) (UniProt P49760)
[8] = molecular target: CSK (human) (UniProt P41240)
[9] = molecular target: DAPK1 (human) (UniProt P53355)
[10] = molecular target: DMPK (human) (UniProt Q09013)
[11] = molecular target: EPHA4 (human) (UniProt P54764)
[12] = molecular target: EPHB2 (human) (UniProt P29323)
[13] = molecular target: GRK7 (human) (UniProt Q8WTQ7)
[14] = molecular target: GSK3A (human) (UniProt P49840)
Chain of GSK3A (human) (P49840 whole entry, looked up): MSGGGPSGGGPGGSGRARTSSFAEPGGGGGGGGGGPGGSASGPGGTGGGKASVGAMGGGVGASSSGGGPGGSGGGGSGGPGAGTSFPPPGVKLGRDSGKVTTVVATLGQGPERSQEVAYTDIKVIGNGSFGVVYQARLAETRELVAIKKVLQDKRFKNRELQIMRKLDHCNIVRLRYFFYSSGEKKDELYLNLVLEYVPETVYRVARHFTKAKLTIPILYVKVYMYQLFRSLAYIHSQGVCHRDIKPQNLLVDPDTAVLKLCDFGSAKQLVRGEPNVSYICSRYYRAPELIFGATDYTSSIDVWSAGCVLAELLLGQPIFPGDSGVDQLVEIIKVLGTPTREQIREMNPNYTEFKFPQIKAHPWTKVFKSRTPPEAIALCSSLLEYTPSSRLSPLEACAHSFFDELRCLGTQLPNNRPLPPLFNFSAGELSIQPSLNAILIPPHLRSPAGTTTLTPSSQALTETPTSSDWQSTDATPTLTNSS

[15] = molecular target: HCK (human) (UniProt P08631)
[16] = molecular target: IRAK1 (human) (UniProt P51617)
[17] = molecular target: LRRK2 (human) (UniProt Q5S007)
[18] = molecular target: LTK (human) (UniProt P29376)
[19] = molecular target: LYN (human) (UniProt P07948)
[20] = molecular target: MAP3K11 (human) (UniProt Q16584)
[21] = molecular target: MAP4K2 (human) (UniProt Q12851)
[22] = molecular target: NEK1 (human) (UniProt Q96PY6)
[23] = molecular target: NEK7 (human) (UniProt Q8TDX7)
Chain of NEK7 (human) (Q8TDX7 whole entry, looked up): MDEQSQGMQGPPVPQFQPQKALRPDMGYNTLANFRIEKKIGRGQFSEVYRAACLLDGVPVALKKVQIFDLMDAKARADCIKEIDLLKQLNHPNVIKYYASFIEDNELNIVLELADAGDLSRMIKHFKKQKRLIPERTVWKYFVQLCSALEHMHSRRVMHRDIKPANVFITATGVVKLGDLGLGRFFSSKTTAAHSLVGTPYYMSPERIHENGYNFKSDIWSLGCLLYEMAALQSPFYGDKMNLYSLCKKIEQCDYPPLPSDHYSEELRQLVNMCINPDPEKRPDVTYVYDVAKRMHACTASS

[24] = molecular target: NTRK1 (human) (UniProt P04629)
[25] = molecular target: OXSR1 (human) (UniProt O95747)
Chain of OXSR1 (human) (O95747 whole entry, looked up): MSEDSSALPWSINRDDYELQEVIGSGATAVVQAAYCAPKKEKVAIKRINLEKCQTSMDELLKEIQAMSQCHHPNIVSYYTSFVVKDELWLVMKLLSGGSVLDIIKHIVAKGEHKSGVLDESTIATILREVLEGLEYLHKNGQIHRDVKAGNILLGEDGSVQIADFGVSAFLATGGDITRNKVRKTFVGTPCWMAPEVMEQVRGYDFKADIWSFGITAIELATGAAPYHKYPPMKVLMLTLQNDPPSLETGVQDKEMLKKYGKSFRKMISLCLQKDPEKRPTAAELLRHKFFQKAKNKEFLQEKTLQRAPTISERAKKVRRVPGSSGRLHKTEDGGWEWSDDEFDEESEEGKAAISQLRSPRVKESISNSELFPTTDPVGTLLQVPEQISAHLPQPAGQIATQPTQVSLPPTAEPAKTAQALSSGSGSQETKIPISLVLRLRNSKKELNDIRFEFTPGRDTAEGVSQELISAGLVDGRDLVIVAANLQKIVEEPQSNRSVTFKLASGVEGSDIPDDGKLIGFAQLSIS

[26] = molecular target: PAK4 (human) (UniProt O96013)
[27] = molecular target: PAK7 (human) (UniProt Q9P286)
[28] = molecular target: PIM2 (human) (UniProt Q9P1W9)
[29] = molecular target: PRKD2 (human) (UniProt Q9BZL6)
[30] = molecular target: PRKG1 (human) (UniProt Q13976)
[31] = molecular target: PRKG2 (human) (UniProt Q13237)
[32] = molecular target: RIPK2 (human) (UniProt O43353)
[33] = molecular target: ROCK1 (human) (UniProt Q13464)
[34] = molecular target: ROCK2 (human) (UniProt O75116)
Chain of ROCK2 (human) (O75116 whole entry, looked up): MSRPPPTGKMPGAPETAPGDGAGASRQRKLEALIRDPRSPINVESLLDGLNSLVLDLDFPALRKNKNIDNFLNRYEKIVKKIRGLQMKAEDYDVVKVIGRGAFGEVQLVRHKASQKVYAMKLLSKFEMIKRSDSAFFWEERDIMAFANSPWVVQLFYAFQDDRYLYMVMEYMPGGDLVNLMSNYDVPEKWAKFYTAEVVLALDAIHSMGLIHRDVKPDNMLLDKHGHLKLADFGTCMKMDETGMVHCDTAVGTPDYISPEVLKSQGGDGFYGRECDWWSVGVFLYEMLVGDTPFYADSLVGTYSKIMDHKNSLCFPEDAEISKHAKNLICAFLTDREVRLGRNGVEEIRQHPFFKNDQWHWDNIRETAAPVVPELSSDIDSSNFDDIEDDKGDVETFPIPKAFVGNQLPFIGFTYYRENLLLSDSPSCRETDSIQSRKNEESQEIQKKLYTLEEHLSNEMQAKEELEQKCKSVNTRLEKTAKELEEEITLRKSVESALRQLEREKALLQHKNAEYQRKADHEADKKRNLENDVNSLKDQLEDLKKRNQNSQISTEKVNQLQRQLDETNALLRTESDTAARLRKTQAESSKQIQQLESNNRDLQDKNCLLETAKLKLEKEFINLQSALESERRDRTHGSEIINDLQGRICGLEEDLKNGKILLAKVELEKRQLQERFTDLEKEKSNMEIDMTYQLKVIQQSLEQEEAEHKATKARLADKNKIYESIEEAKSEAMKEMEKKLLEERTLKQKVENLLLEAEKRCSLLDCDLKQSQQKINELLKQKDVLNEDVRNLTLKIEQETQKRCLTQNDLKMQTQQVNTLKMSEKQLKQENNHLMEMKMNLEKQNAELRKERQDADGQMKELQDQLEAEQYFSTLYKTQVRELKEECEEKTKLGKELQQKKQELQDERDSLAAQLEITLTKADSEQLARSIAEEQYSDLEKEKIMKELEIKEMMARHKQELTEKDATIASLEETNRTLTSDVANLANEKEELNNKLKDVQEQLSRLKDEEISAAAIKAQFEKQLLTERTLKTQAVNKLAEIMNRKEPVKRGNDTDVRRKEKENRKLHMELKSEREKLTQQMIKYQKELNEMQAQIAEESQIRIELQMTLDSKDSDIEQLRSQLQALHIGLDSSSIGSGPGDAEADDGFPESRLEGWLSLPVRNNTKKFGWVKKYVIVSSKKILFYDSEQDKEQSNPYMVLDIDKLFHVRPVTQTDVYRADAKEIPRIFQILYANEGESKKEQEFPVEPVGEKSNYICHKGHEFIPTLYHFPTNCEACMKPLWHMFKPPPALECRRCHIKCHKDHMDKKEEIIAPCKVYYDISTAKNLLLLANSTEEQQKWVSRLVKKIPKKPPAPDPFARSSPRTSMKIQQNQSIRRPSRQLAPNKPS

[35] = molecular target: RPS6KB1 (human) (UniProt P23443)
[36] = molecular target: SRC (human) (UniProt P12931)
[37] = molecular target: STK10 (human) (UniProt O94804)
[38] = molecular target: STK17A (human) (UniProt Q9UEE5)
[39] = molecular target: STK25 (human) (UniProt O00506)
[40] = molecular target: TNK2 (human) (UniProt Q07912)
[41] = molecular target: TSSK2 (human) (UniProt Q96PF2)
Chain of TSSK2 (human) (Q96PF2 whole entry, looked up): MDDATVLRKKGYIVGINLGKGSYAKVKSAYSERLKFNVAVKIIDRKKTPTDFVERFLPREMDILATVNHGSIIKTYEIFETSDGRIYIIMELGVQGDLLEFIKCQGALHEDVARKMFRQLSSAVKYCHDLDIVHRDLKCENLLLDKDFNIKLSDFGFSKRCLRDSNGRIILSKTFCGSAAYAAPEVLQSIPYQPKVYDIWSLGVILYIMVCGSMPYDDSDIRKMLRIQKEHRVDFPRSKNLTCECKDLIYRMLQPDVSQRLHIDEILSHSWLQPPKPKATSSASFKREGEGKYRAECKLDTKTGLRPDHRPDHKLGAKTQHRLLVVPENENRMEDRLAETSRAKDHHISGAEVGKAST

[42] = molecular target: ZAP70 (human) (UniProt P43403)

Chain of AKT2 (human) (P31751 whole entry, looked up): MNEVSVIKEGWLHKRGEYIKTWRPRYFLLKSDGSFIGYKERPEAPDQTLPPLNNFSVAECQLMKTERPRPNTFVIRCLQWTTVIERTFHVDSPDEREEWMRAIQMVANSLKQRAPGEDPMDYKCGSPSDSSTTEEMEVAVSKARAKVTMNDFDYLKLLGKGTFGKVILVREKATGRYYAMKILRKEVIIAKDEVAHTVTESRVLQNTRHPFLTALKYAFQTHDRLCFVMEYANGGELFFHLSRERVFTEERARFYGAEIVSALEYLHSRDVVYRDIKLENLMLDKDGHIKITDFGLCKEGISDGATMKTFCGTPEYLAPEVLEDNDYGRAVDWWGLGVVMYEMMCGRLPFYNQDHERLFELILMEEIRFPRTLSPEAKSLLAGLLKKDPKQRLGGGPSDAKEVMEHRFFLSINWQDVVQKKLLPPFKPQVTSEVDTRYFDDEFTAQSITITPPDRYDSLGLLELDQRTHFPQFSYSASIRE

Compound: O=C(c1ccccc1)c1ccc(N2CCOCC2)cc1O
residual activity [1]: 97.9%
residual activity [2]: 102%
residual activity [3]: 90.4%
residual activity [4]: 105%
residual activity [5]: 95.5%
residual activity [6]: 105%
residual activity [7]: 106%
residual activity [8]: 101%
residual activity [9]: 92.5%
residual activity [10]: 98.9%
residual activity [11]: 103%
residual activity [12]: 94.9%
residual activity [13]: 99.6%
residual activity [14]: 102%
residual activity [15]: 114%
residual activity [16]: 103%
residual activity [17]: 95.4%
residual activity [18]: 107%
residual activity [19]: 100% and 105%
residual activity [20]: 93.2%
residual activity [21]: 116%
residual activity [22]: 115%
residual activity [23]: 104%
residual activity [24]: 99%
residual activity [25]: 110%
residual activity [26]: 104%
residual activity [27]: 99.2%
residual activity [28]: 105%
residual activity [29]: 99.1%
residual activity [30]: 86.8% and 96.4%
residual activity [31]: 102%
residual activity [32]: 95%
residual activity [33]: 93.4%
residual activity [34]: 96%
residual activity [35]: 95.3%
residual activity [36]: 97.8%
residual activity [37]: 97.9%
residual activity [38]: 97.9%
residual activity [39]: 100%
residual activity [40]: 104%
residual activity [41]: 104%
residual activity [42]: 95.9%

Compound: FC(F)(F)c1ccc(/C=C/c2nc(COc3ccc(CCCCn4ccnn4)cc3)co2)cc1
residual activity [1]: 99.9%
residual activity [2]: 108%
residual activity [3]: 99%
residual activity [4]: 99.3%
residual activity [5]: 103%
residual activity [6]: 91%
residual activity [7]: 89.6%
residual activity [8]: 106%
residual activity [9]: 91.3%
residual activity [10]: 101%
residual activity [11]: 98.8%
residual activity [12]: 98.3%
residual activity [13]: 97.8%
residual activity [14]: 102%
residual activity [15]: 93.9%
residual activity [16]: 99.5%
residual activity [17]: 94.8%
residual activity [18]: 104%
residual activity [19]: 104% and 95.8%
residual activity [20]: 99.1%
residual activity [21]: 105%
residual activity [22]: 94.5%
residual activity [23]: 94.6%
residual activity [24]: 103%
residual activity [25]: 99.7%
residual activity [26]: 107%
residual activity [27]: 89.4%
residual activity [28]: 116%
residual activity [29]: 96.9%
residual activity [30]: 75.9% and 98.1%
residual activity [31]: 89.9%
residual activity [32]: 109%
residual activity [33]: 100%
residual activity [34]: 99.7%
residual activity [35]: 105%
residual activity [36]: 92.5%
residual activity [37]: 92.6%
residual activity [38]: 103%
residual activity [39]: 91.8%
residual activity [41]: 100%
residual activity [42]: 115%

Compound: O=c1c(-c2ccc(F)cc2)c(-c2ccncc2)[nH]n1-c1ccc(Cl)cc1
residual activity [1]: 97.8%
residual activity [2]: 83.8%
residual activity [3]: 95.8%
residual activity [4]: 93.7%
residual activity [5]: 98%
residual activity [6]: 86.9%
residual activity [7]: 99%
residual activity [8]: 86.1%
residual activity [9]: 84.5%
residual activity [10]: 87.6%
residual activity [11]: 93.5%
residual activity [12]: 101%
residual activity [14]: 93.3%
residual activity [15]: 91.1%
residual activity [16]: 103%
residual activity [17]: 102%
residual activity [18]: 75.5%
residual activity [19]: 97.5% and 99.7%
residual activity [20]: 98%
residual activity [21]: 87.7%
residual activity [22]: 78.7%
residual activity [23]: 90.1%
residual activity [24]: 95.5%
residual activity [25]: 83.3%
residual activity [26]: 82%
residual activity [27]: 86.3%
residual activity [28]: 114%
residual activity [29]: 73.4%
residual activity [30]: 106% and 95.6%
residual activity [31]: 110%
residual activity [32]: 50.2%
residual activity [33]: 109%
residual activity [34]: 89.5%
residual activity [35]: 89.9%
residual activity [36]: 91.6%
residual activity [37]: 81.9%
residual activity [38]: 105%
residual activity [39]: 111%
residual activity [40]: 91.2%
residual activity [41]: 80%
residual activity [42]: 108%

residual activity [1]: 104%
residual activity [2]: 85.2%
residual activity [3]: 92.9%
residual activity [4]: 97.3%
residual activity [5]: 99.6%
residual activity [6]: 92.3%
residual activity [7]: 48.5%
residual activity [8]: 93.4%
residual activity [9]: 99.3%
residual activity [11]: 104%
residual activity [12]: 112%
residual activity [13]: 113%
residual activity [14]: 2.42%
residual activity [15]: 92.2%
residual activity [16]: 91.8%
residual activity [17]: 83.4%
residual activity [18]: 83.1%
residual activity [19]: 96.2% and 96.4%
residual activity [20]: 72.2%
residual activity [21]: 76.9%
residual activity [22]: 70%
residual activity [23]: 88.2%
residual activity [24]: 106%
residual activity [25]: 99%
residual activity [26]: 91.3%
residual activity [27]: 98.9%
residual activity [28]: 91.2%
residual activity [29]: 79.2%
residual activity [30]: 97.5% and 99.4%
residual activity [31]: 98.1%
residual activity [33]: 93.2%
residual activity [34]: 83.6%
residual activity [35]: 98.2%
residual activity [36]: 86.8%
residual activity [37]: 86.3%
residual activity [38]: 94%
residual activity [39]: 97.7%
residual activity [40]: 42.8%
residual activity [41]: 102%
residual activity [42]: 94.5%
Compound: N#C/C(=C1/Nc2ccccc2S1)c1ccnc(NCCc2cccnc2)n1

Compound: O=S(=O)(NCCNC/C=C/c1ccc(Br)cc1)c1cccc2cnccc12
residual activity [1]: 75.4%
residual activity [2]: 101%
residual activity [3]: 102%
residual activity [4]: 93.3%
residual activity [5]: 97.5%
residual activity [6]: 77.3%
residual activity [7]: 106%
residual activity [8]: 95.6%
residual activity [9]: 81.5%
residual activity [10]: 96.6%
residual activity [11]: 86.8%
residual activity [12]: 81.7%
residual activity [14]: 94.3%
residual activity [15]: 99.4%
residual activity [16]: 95.7%
residual activity [17]: 86.2%
residual activity [18]: 94.7%
residual activity [19]: 101% and 126%
residual activity [20]: 95.6%
residual activity [21]: 51.1%
residual activity [22]: 94.4%
residual activity [23]: 96.9%
residual activity [24]: 84.9%
residual activity [25]: 95.9%
residual activity [26]: 98.9%
residual activity [27]: 91.4%
residual activity [28]: 104%
residual activity [29]: 75.9%
residual activity [30]: 26.3% and 41.1%
residual activity [31]: 56.9%
residual activity [32]: 77.8%
residual activity [33]: 37.8%
residual activity [34]: 15.4%
residual activity [35]: 25.6%
residual activity [36]: 90.1%
residual activity [37]: 89.2%
residual activity [38]: 100%
residual activity [39]: 104%
residual activity [40]: 88.3%
residual activity [41]: 104%
residual activity [42]: 97.9%
